Measured values taken from paper PMC5442262, “Catechol glucosides act as donor/acceptor substrates of glucansucrase enzymes of Lactobacillus reuteri” (Applied Microbiology and Biotechnology, 2017).

Legend:
Assay type in all cases: biochemical
[1] = molecular target: T1, GtfML1-ΔN (Limosilactobacillus reuteri, UniProt Q5SBN0); test: MALDI-TOF-MS of products; details: 100 mM catG1, 24 h; 25 mM sodium acetate pH 4.7, 1 mM CaCl2, 37 °C; donor and acceptor
T1 construct: recombinant, N-terminally truncated (ΔN); also printed GtfMLI-ΔN
T1 sequence (Q5SBN0 entry or part of it, stated change not applied): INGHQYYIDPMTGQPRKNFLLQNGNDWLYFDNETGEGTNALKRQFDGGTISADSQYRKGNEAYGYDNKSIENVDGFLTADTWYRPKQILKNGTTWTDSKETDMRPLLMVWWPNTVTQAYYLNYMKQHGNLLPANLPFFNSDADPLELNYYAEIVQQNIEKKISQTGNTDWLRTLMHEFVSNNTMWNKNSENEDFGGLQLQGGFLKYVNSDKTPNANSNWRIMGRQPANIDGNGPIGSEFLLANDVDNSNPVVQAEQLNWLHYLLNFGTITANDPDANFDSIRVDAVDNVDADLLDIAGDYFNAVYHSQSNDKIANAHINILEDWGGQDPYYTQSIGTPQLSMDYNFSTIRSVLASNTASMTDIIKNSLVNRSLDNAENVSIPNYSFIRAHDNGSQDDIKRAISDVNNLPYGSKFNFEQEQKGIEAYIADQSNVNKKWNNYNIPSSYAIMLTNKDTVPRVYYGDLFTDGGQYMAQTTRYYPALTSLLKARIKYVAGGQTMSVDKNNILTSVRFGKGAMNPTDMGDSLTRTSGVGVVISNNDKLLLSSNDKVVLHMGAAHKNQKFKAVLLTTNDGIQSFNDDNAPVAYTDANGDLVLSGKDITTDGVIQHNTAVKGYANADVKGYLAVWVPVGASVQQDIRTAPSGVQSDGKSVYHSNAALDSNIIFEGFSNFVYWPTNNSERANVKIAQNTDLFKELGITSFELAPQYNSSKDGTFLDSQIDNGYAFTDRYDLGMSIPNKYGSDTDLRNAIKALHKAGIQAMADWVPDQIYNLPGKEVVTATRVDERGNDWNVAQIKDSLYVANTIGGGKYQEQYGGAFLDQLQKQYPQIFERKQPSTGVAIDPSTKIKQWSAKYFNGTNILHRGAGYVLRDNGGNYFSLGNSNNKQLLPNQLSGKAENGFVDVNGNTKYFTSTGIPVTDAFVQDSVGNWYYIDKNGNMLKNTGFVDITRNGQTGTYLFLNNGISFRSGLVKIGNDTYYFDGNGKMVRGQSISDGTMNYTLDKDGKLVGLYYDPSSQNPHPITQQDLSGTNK

[2] = molecular target: T2, Gtf180-ΔN (Limosilactobacillus reuteri, UniProt Q5SBN3); test: MALDI-TOF-MS of products; details: 100 mM catG1, 24 h; 25 mM sodium acetate pH 4.7, 1 mM CaCl2, 37 °C; donor and acceptor
T2 construct: recombinant, N-terminally truncated (ΔN)
T2 sequence (Q5SBN3 entry or part of it, stated change not applied): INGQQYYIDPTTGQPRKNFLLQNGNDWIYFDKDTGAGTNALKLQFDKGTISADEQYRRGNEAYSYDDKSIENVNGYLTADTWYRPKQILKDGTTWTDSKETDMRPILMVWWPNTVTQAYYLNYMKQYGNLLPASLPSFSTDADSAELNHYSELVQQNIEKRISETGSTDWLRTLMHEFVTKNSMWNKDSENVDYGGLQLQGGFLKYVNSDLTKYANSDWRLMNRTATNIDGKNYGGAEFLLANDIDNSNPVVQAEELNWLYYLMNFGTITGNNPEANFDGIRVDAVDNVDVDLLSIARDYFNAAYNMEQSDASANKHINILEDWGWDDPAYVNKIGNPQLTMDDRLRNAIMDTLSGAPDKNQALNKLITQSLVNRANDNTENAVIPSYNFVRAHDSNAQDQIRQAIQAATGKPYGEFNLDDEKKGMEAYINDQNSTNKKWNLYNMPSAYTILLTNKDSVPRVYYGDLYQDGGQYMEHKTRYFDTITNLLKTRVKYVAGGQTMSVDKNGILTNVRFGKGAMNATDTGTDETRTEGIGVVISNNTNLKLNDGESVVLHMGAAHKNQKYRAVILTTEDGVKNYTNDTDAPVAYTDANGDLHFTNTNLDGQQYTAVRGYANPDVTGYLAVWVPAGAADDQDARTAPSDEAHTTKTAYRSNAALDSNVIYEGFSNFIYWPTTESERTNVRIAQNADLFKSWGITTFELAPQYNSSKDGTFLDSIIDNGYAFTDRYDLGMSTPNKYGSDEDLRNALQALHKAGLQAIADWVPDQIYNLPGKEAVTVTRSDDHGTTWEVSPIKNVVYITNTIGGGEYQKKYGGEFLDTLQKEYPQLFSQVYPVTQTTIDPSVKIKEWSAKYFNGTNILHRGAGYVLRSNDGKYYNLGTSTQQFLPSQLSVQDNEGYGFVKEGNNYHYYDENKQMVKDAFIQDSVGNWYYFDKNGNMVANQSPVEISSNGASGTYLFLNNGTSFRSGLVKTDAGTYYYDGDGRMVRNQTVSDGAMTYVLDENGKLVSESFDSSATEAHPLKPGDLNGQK

[3] = molecular target: T2, Gtf180-ΔN; test: NP-HPLC of substrate decrease; 1H NMR of products; details: 100 mM cat^6G2; 25 mM sodium acetate pH 4.7, 1 mM CaCl2, 37 °C; donor and acceptor

SMILES | MALDI-TOF-MS of products [1] | MALDI-TOF-MS of products [2] | NP-HPLC of substrate decrease; 1H NMR of products [3]
OC[C@H]1O[C@H](Oc2ccccc2O)[C@H](O)[C@@H](O)[C@@H]1O [catG1] | Gtf180-ΔN and GtfMLI-ΔN glucansucrase enzymes also were able to use catG1 as glucosyl donor | Gtf180-ΔN and GtfMLI-ΔN glucansucrase enzymes also were able to use catG1 as glucosyl donor | 
OC[C@H]1O[C@H](OC[C@H]2O[C@H](Oc3ccccc3O)[C@H](O)[C@@H](O)[C@@H]2O)[C@H](O)[C@@H](O)[C@@H]1O [cat^6G2] |  |  | Gtf180-ΔN used both cat^3G2 and cat^6G2 as donor/acceptor substrates
